We go through 21 molecules from patent US7132456B2, “MCH receptor antagonists” (Eli Lilly and Company, priority 2002, dated 2006).

Counter-ions that a name gives are not always drawn. Like-named read-outs stand apart in the source and are kept apart here.

Data set [1] concerns the target T1, human MCHR1 (Homo sapiens, UniProt Q99705).
T1 construct: The full-length cDNA for human MCHR1 was cloned; expressed in transfected cells; host or cells: AV12 cells previously transfected with Gα15
The data set can be described thus: 125I-MCH competitive binding assay on clone 43 membranes (MCHR1 binding). The note with it: competitive binding vs 100 pM 125I-MCH, clone 43 membranes (AV12 cells expressing MCHR1), Ki from IC50 by Cheng-Prusoff, tested in duplicate, read-out: MCHr Binding Ki. How it is done: The full-length cDNA for human MCHR1 was cloned from a human adult brain cDNA library (Edge Biosystems, Cat. 38356) by standard polymerase chain reaction (PCR) methodology employing the following primers: sense, 5′-GCCACCATGGACCT GGAAGCCTCGCTGC-3′; anti-sense, 5′-[…]-3′. The PCR reaction was performed in a final volume of 50 μL containing 5 μL of a 10× stock solution of PCR buffer, 1 μL of 10 mM dNTP mixture (200 μM final), 2 μL of 50 mM Mg(SO4) (2 mM final), 0.5 μL of 20 μM solutions of each primer (0.2 μM final), 5 μL of template cDNA containing 0.5 ng DNA, 0.5 μL of Platinum Taq High Fidelity DNA polymerase (Gibco Life Technologies) and 36 μL of H2O. PCR amplification was performed on a Perkin Elmer 9600 thermocycler. After denaturation for 90 sec at 94° C., the amplification sequence consisting of 94° C. for 25 sec, 55° C. for 25 sec and 72° C. for 2 min was repeated 30 times, followed by a final elongation step at 72° C. for 10 min. The desired PCR product (1.1 Kb) was confirmed by agarose gel electrophoresis and the band was extracted from the gel by Geneclean (Bio101) following the manufacturer's instructions. Following extraction, the cDNA fragment was cloned into pCR2.1-TOPO plasmid (Invitrogen) to confirm the identity and sequence.
In order to generate cell lines stably expressing MCHR1, the insert was then subcloned into the Xba I and Not I sites of pcDNA(+)-3.1-neomycin (Invitrogen). After purification by Qiagen Maxi-prep kit (QIAGEN, Inc.), the plasmid was transfected by Fugene 6 (Roche Applied Science) into AV12 cells that had been previously transfected with the promiscuous G protein Gα15. The transfected cells were selected by G418 (800 μg/mL) for 10–14 days and single colonies were isolated from culture plates. The G418-resistant colonies were further selected for MCHR1 expression by measuring MCH-stimulated Ca^2+ transients with a fluorometric imaging plate reader (FLIPR, Molecular Devices).
Both the ^125I-MCH binding and functional GTPγ^35S binding assays employed membranes isolated from a clone designated as clone 43. Typically, cells from 20 confluent T225 flasks were processed by washing the monolayers in cold phosphate-buffered saline (PBS), scraping the cells into same and re-suspending the cell pellet in 35 mL of 250 mM Sucrose, 50 mM HEPES, pH 7.5, 1 mM MgCl2, 24 μg/mL DNase I, and protease inhibitors (1 Complete® tablet, per 50 ml of buffer prepared, Roche Diagnostics). After incubation on ice for 5 min, cells were disrupted with 20–25 strokes of a Teflon/Glass homogenizer attached to an overhead motorized stirrer, and the homogenate was centrifuged at 40,000 rpm in Beckman Type 70.1 Ti rotor. The pellets were re-suspended in 250 mM Sucrose, 50 mM HEPES, pH 7.5, 1.5 mM CaCl2, 1 mM MgSO4 and protease inhibitors by Teflon/Glass homogenization to achieve a protein concentration of ˜3–5 mg/ml (Pierce BCA assay with Bovine serum albumin as standard). Aliquots were stored at −70° C.
Binding of compounds to MCHR1 was assessed in a competitive binding assay employing ^125I-MCH, compound and clone 43 membranes. Briefly, assays are carried out in 96-well Costar 3632 white opaque plates in a total volume of 200 μl containing 25 mM HEPES, pH 7.5, 10 mM CaCl2, 2 mg/ml bovine serum albumin, 0.5% dimethyl sulfoxide (DMSO), 4 μg of clone 43 membranes, 100 pM ^125I-MCH (NEN), 1.0 mg of wheat germ agglutinin scintillation proximity assay beads (WGA-SPA beads, Amersham) and a graded dose of test compound. Non-specific binding is assessed in the presence of 1 μM unlabeled MCH. Bound ^125I-MCH is determined by placing sealed plates in a Microbeta Trilux (Wallac) and counting after a 5 hr delay.
IC50 values (defined as the concentration of test compound required to reduce specific binding of ^125I-MCH by 50%) are determined by fitting the concentration-response data to a 4-parameter model (max response, min response, Hill coefficient, IC50) using Excel. […]

T1 sequence (Q99705 whole entry): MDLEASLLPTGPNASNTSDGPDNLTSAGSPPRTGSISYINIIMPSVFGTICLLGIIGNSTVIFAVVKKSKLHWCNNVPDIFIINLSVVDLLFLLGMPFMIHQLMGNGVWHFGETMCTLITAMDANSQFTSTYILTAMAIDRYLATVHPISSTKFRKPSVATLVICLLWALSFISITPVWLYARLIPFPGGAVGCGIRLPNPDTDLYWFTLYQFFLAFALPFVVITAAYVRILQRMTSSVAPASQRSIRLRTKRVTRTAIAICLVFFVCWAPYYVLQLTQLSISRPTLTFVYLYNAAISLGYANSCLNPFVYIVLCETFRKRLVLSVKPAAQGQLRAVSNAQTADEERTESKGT

For the molecule `CN(C)CCNC(=O)c1ccc(-c2ccccc2CSCCOc2ccccc2)cc1` [Example 23, 2′-(2-phenoxy-ethylsulfanylmethyl)-biphenyl4-carboxylic acid (2-dimethylamino-ethyl)-amide], the melting point fell in the range of 93 to 96 °C. For the same molecule, the Ki in data set [1] is 7.2 µM. For `CN(C)CCNC(=O)c1ccc(-c2cccc(CSCCOc3ccccc3)c2)cc1` [Example 14, 3′-(2-phenoxy-ethylsulfanylmethyl)-biphenyl-4-carboxylic acid (2-dimethylamino-ethyl)-amide], in that order: 75 to 78 °C and 1.47 µM.

`CN(C)CCCCNC(=O)c1ccc(-c2ccccc2CSCCOc2ccccc2)cc1` [Example 25, 2′-(2-phenoxy-ethylsulfanylmethyl)-biphenyl4-carboxylic acid (4-dimethylamino-butyl)-amide]: the Ki in data set [1] turned out to be 6.89 µM. Consider `CN(C)CCCNC(=O)c1ccc(-c2ccc(CSCCOc3ccccc3)cc2)cc1` (as salt: hydrochloride), for which the melting point lay within 112 to 115 °C. As for “4′-(2-phenoxy-ethylsulfanylmethyl)-biphenyl-4-carboxylic acid (2-dimethylamino-ethyl)-amide oxalate [Example 4]”, in data set [1] (oxalate), the Ki worked out at 11.7 µM. Molecule `CN(C)CCCNC(=O)c1ccc(-c2ccccc2CSCCOc2ccccc2)cc1` [Example 24, 2′-(2-phenoxy-ethylsulfanylmethyl)-biphenyl4-carboxylic acid (3-dimethylamino-propyl)-amide] yielded a melting point of 98 to 100 °C. Further, the Ki in data set [1] turned out to be 6.13 µM. With `CN(C)CCCCNC(=O)c1ccccc1-c1ccccc1CSCCOc1ccccc1.O=C(O)C(=O)O`, the melting point lay within 64 to 70 °C. `CN(C)CCCCNC(=O)c1ccc(-c2ccc(CSCCOc3ccccc3)cc2)cc1.O=C(O)C(=O)O` [Example 6, 4′-(2-phenoxy-ethylsulfanylmethyl)-biphenyl-4-carboxylic acid (4-dimethylamino-butyl)-amide oxalate] had a melting point of 142 to 147 °C. Further, the Ki in data set [1] worked out at 10.1 µM. For `CN(C)CCCCNC(=O)c1ccc(-c2cccc(CSCCOc3ccccc3)c2)cc1.O=C(O)C(=O)O` [Example 16, 3′-(2-phenoxy-ethylsulfanylmethyl)-biphenyl4-carboxylic acid (4-dimethylamino-butyl)-amide oxalate], in that order: 85 to 89 °C and 8.96 µM. `CN(C)CCNC(=O)c1cccc(-c2ccc(CSCCOc3ccccc3)cc2)c1.O=C(O)C(=O)O` [Example 2, 4′-(2-phenoxy-ethylsulfanylmethyl)-biphenyl-3-carboxylic acid (2-dimethylamino-ethyl)-amide oxalate] returned a melting point of 88 to 93 °C. Further, the Ki in data set [1] is 7.52 µM. For `CN(C)CCCCNC(=O)c1cccc(-c2ccc(CSCCOc3ccccc3)cc2)c1.O=C(O)C(=O)O` [Example 3, 4′-(2-phenoxy-ethylsulfanylmethyl)-biphenyl-3-carboxylic acid (4-dimethylamino-butyl)-amide oxalate], in that order: 144 to 147 °C and 10.7 µM.

In turn, `CN(C)CCCCNC(=O)c1ccccc1-c1ccc(CSCCOc2ccccc2)cc1.O=C(O)C(=O)O` [Example 9, 4′-(2-phenoxy-ethylsulfanylmethyl)-biphenyl-2-carboxylic acid (4-dimethylamino-butyl)-amide oxalate] came in with a melting point of 72 to 76 °C. Moreover, in data set [1], the Ki worked out at 16.3 µM.

Regarding `CN(C)CCCNC(=O)c1cccc(-c2cccc(CSCCOc3ccccc3)c2)c1.O=C(O)C(=O)O` [Example 13, 3′-(2-phenoxy-ethylsulfanylmethyl)-biphenyl-3-carboxylic acid (3-dimethylamino-propyl)-amide oxalate], the melting point lay in the range of 51 to 53 °C. For the same molecule, the Ki in data set [1] came out at 8.76 µM.

Take `CN(C)CCNC(=O)c1ccccc1-c1cccc(CSCCOc2ccccc2)c1.Cl`: the melting point was 150 to 153 °C. As for “2′-(2-phenoxy-ethylsulfanylmethyl)-biphenyl-3-carboxylic acid (4-dimethylamino-butyl)-amide oxalate [Example 22]”, in data set [1], the Ki amounted to 10.8 µM. Turning to `CN(C)CCCNC(=O)c1ccc(-c2cccc(CSCCOc3ccccc3)c2)cc1.O=C(O)C(=O)O` [Example 15, 3′-(2-phenoxy-ethylsulfanylmethyl)-biphenyl4-carboxylic acid (3-dimethylamino-propyl)-amide oxalate], the melting point fell in the range of 133 to 137 °C. The Ki in data set [1] came to 1.95 µM.

Turning to `CN(C)CCCNC(=O)c1cccc(-c2ccc(CSCCOc3ccccc3)cc2)c1.O=C(O)C(=O)O` [Example 1, 4′-(2-phenoxy-ethylsulfanylmethyl)-biphenyl-3-carboxylic acid(3-dimethylamino-propyl)-amide oxalate], the melting point lay within 132 to 133.5 °C. In addition, in data set [1], the Ki was 5.04 µM. Taken in the same sequence, the figures for `CN(C)CCNC(=O)c1cccc(-c2ccccc2CSCCOc2ccccc2)c1.O=C(O)C(=O)O` [Example 20, 2′-(2-phenoxy-ethylsulfanylmethyl)-biphenyl-3-carboxylic acid (2-dimethylamino-ethyl)-amide oxalate] were 96 to 100 °C and 11.4 µM. `CN(C)CCNC(=O)c1ccccc1-c1ccc(CSCCOc2ccccc2)cc1.O=C(O)C(=O)O` showed a melting point of 109 to 113 °C.

Regarding `CN(C)CCNC(=O)c1ccccc1-c1ccccc1CSCCOc1ccccc1.O=C(O)C(=O)O`, the melting point lay within 46 to 50 °C. As to `CN(C)CCCNC(=O)c1cccc(-c2ccccc2CSCCOc2ccccc2)c1.O=C(O)C(=O)O` [Example 21, 2′-(2-phenoxy-ethylsulfanylmethyl)-biphenyl-3-carboxylic acid (3-dimethylamino-propyl)-amide oxalate], the melting point was 97 to 100 °C. Also, the Ki in data set [1] is 8.55 µM.
